Test results taken from patent publication US4898815A (priority 1983, dated 1990).

System: intestinal loop of C3H mice
Design: species or system C3H mouse
Conditions: mouse, in vivo

cholera toxin
weight per cm of intestine (milligrams per centimeter of intestine): 126.7 mg
